Reference: patent US20150065709A1, “Aminoquinazoline Derivative And Use Thereof In Preparing Anti-Malignant Tumor Medicament” (METABOMICS, INC, priority 2012, published 2015)

Legend:
[1] = test system: CAL27 (head and neck cancer); assay: Transplanted tumor in nude mice, CAL27 model; assay type: in vivo, nude mice (BALB/c); conditions: 10 mg/kg/day orally for 21 days
Description: (§1) Furthermore, more pharmacological models of tumor cell lines in nude mice were utilized to validate the inhibitory effects of compound Ie. The test method was specifically described as follows: H1975, A549, HCC827, A431, N87, MDA-MD-468 and CAL27 tumor cells respectively were inoculated into nude mice (BALB/c, male, 5-6 weeks of age), and when the mean tumor volume reaches 150 mm^3 mice was randomized into groups. The H1975 tumor model in nude mice includes one positive control group and three dosage groups of compound Ie (6.7 mg/kg/day, 13.4 mg/kg/day, and 20.1 mg/kg/day. The A549 tumor model in nude mice includes one positive control group, two dosage groups of compound Ie (10 mg/kg/day, 20 mg/kg/day), and one dosage group of Docetaxel (12 mg/kg/day). The HCC827 tumor model in nude mice includes one positive control group, two dosage groups of compound Ie (0.5 mg/kg/day, 2.5 mg/kg/day), and one dosage group of Erlotinib (12.5 mg/kg/day). The A431 tumor model in nude mice includes one positive control group, two dosage groups of compound Ie (2.5 mg/kg/day, 5 mg/kg/day), and one dosage group of Erlotinib (50 mg/kg/day). […] The tumor size and body weight of nude mice were recorded twice weekly from the first day of administration. The tumor volume was calculated using formula (1×w^2), wherein 1 and w respectively represents the maximum and minimum size in each measurement. […]

EGFR kinases = EGFR kinases (Homo sapiens, UniProt P00533); assay: Reversible inhibition test of enzyme activity of EGFR kinases; assay type: biochemical
EGFR kinases, sequence (P00533 25-1210): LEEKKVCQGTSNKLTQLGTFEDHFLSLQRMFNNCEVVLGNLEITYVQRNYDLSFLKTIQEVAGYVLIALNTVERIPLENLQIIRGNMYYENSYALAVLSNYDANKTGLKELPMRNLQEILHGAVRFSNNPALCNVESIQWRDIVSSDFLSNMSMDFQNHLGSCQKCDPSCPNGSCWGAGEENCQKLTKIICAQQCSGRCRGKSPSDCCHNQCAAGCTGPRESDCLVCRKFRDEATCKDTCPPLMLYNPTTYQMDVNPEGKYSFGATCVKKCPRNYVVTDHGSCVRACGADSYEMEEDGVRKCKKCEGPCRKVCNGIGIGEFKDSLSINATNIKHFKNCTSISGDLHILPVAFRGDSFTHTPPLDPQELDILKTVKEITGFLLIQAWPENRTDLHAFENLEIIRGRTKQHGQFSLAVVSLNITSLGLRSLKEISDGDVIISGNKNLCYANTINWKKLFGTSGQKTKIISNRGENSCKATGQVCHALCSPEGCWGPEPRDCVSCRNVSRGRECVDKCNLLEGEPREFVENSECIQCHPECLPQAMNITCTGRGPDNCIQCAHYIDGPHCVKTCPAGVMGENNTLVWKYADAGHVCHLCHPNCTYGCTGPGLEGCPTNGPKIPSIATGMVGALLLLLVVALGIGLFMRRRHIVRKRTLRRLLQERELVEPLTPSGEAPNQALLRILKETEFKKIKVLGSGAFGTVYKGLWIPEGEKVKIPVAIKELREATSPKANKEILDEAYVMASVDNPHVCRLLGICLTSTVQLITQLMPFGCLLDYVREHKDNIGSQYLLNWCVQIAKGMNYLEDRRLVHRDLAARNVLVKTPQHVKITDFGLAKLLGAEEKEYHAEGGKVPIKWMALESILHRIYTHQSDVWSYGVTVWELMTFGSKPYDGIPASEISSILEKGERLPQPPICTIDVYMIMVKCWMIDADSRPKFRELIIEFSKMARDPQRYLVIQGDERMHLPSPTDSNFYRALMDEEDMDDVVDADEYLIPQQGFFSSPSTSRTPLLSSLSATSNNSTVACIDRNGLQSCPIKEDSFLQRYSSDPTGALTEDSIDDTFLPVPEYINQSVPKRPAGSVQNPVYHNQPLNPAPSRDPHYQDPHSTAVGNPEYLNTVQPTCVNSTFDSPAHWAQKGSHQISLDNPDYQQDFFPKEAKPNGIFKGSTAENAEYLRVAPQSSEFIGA

A431(EGFR) = assay: Transplanted tumor in nude mice, A431 model; assay type: in vivo, nude mice (BALB/c)
Description: as §1

NCI-H2126 = assay: Inhibition of tumor cells, WST method; assay type: cell-based; conditions: Homo sapiens, Lung
Description: (§2) (1) Compounds: in vitro studies the test compounds was dissolved in 100% DMSO and diluted until the final concentration of DMSO was 0.1%. The 0.1% (v/v) DMSO was added into culture medium as solvent control. 9 concentration gradients were tested and each gradient was repeated twice. (2) Tumor cell lines: the tumor cell lines were cultivated in RPMI10 culture medium containing 10% fetal calf serum in incubator at 37° C. in a 5% CO2 air incubator. The tested tumor cell lines were: BT474, MDA-MB-231, SK-Br-3, A431, H292, H1975, HCC827, A549, H1650 and H1734. (3) MTS method: cells were seeded into 96-well plate to give a density of about 3000 cells per well, and incubated overnight in a humidified incubator at 37° C. In the next day, the test compounds were added to the wells and further incubated for 72 hours. The cell activity was detected using MTS. IC50 was calculated (the concentration of a compound that is required for 50% inhibition of the cell growth versus the DMSO control group, using nonlinear regression analysis of software GraphPad Prism). […] In a 96-well plate, each test compound was tested at 9 dosage concentrations and each dosage was made in triplicate. Samples were added in 100 μL/well. Cell control and negative control wells contained diluents instead of compounds. Except the negative control well, 100 μL cell suspension of complete medium was added into each test well, wherein corresponding cell numbers were included to assure that the cells in cell control well just cover the bottom of the well as the required incubation time was reached. The plate was incubated in a CO2 incubator at 37° C. for 48 hours. The liquid in test wells was removed by pipetting. 100 μL CCK-8 (Cell counting Kit-8, purchased from DOJINDO Molecular Technologies) detection liquid (containing 10% CCK-8, 5% FBS corresponding medium) was added into each test well, then the plate was incubated in a CO2 incubator under at 37° C. for 3 hours. OD value was detected by ELIASA at A450 nm. Cell viability percentage (%)=(O.D. test compound-O.D. blank)/(O.D. control-O.D. blank)×100. Mean value was calculated for each 3 repeated wells, and IC50 was calculated using nonlinear regression (fitted curve) data analysis method.
(§3) Parts of test results of compound Ie listed in the table 3 and all of the test results listed in the table 4 were obtained by WST method.

SK-Br-3 = assay: Inhibition of tumor cells, WST method; assay type: cell-based; conditions: Homo sapiens, 48 hours
Description: as §2, §3

ZR-75-30 = assay: Inhibition of tumor cells, WST method; assay type: cell-based; conditions: Homo sapiens, Breast
Description: as §2, §3

NUGC-3 = assay: Inhibition of tumor cells, WST method; assay type: cell-based; conditions: Homo sapiens, Stomach
Description: as §2, §3

ACHN = assay: Inhibition of tumor cells, WST method; assay type: cell-based; conditions: Homo sapiens, Kidney
Description: as §2, §3

CAL27 = assay: Inhibition of tumor cells, WST method; assay type: cell-based; conditions: Homo sapiens, CAL-27, Head and Neck
Description: as §2, §3

Calu-3 = assay: Inhibition of tumor cells, WST method; assay type: cell-based; conditions: Homo sapiens, Lung
Description: as §2, §3

A431 = assay: Inhibition of tumor cells, WST method; assay type: cell-based; conditions: Homo sapiens, A-431, 48 hours
Description: as §2, §3

NCI-H358 = assay: Inhibition of tumor cells, WST method; assay type: cell-based; conditions: Homo sapiens, Lung
Description: as §2, §3

FaDu = assay: Inhibition of tumor cells, WST method; assay type: cell-based; conditions: Homo sapiens, Head and Neck
Description: as §2, §3

H1975 = assay: Inhibition of tumor cells, WST method; assay type: cell-based; conditions: Homo sapiens, NCI-H1975, 48 hours
Description: as §2, §3

NCI-N87 = assay: Inhibition of tumor cells, WST method; assay type: cell-based; conditions: Homo sapiens, Stomach
Description: as §2, §3

H1650 = assay: Inhibition of tumor cells, WST method; assay type: cell-based; conditions: Homo sapiens, NCI-H1650, 48 hours
Description: as §2, §3

CW-2 = assay: Inhibition of tumor cells, WST method; assay type: cell-based; conditions: Homo sapiens, Colon
Description: as §2, §3

BT474 = assay: Inhibition of tumor cells, WST method; assay type: cell-based; conditions: Homo sapiens, BT-474, 48 hours
Description: as §2, §3

H292 = assay: Inhibition of tumor cells, WST method; assay type: cell-based; conditions: Homo sapiens, NCI-H292, 48 hours
Description: as §2, §3

CN(C)C/C=C/C(=O)Nc1cc2c(Nc3ccc(F)c(Cl)c3)ncnc2cc1OC(F)F [Compound Ie]
inhibitory and therapeutic effects on CAL27 tumor model [1]: strong inhibitory effects and therapeutic effects | reversibility of inhibition of EGFR kinases (EGFR kinases): irreversibility | inhibitory and therapeutic effects on A431 tumor model (A431(EGFR); 2.5, 5 mg/kg/day orally for 21 days): strong inhibitory effects and therapeutic effects | inhibitory effects on tumor cell growth compared with other drugs, A431 model (A431(EGFR); versus Erlotinib (50 mg/kg/day)): stronger inhibitory effects | IC50 (NCI-H2126): 1.69 µM | IC50 (SK-Br-3): 0.028 µM | IC50 (ZR-75-30): 0.683 µM | IC50 (NUGC-3): 0.055 µM | IC50 (ACHN): 0.107 µM | IC50 (CAL27): 0.002 µM | IC50 (Calu-3): 0.022 µM | IC50 (A431): 1.24 µM | IC50 (NCI-H358): 0.195 µM | IC50 (FaDu): 0.169 µM | IC50 (H1975): 0.198 µM | IC50 (NCI-N87): 0.001 µM | IC50 (H1650): 0.702 µM | IC50 (CW-2): 0.036 µM | IC50 (BT474): 0.088 µM | IC50 (H292): 0.181 µM
